Consider 27 compounds from patent US10377698B2, “Diphenethylamine derivatives which are inter alia useful as analgesics and method for their production” (UNIVERSITY OF INNSBRUCK, priority 2015, dated 2019).

On the set-up of data set [1]: species or system mice. The following applies: mouse, in vivo, sc.
In data set [2] the target is T1, KOR (Homo sapiens, UniProt P41145). As to the kind of experiment: biochemical. Set-up: expressed in transfected cells; host or cells: CHO cells (membranes). The following applies: for Emax: read-out: [35S]GTPγS binding KOR Emax. The class given is biochemical. A general note: GTPγS is a poorly hydrolysed GTP analogue; its binding reports G protein activation.
Data set [3] addresses T2, human DOR (Homo sapiens, UniProt P41143).
T2 construct: expressed in transfected cells; host or cells: CHO cells (membranes)
As to the kind of experiment: Opioid receptor binding assay, competition binding, CHO cell membranes (DOR). The following applies: membranes from CHO cells stably expressing human DOR; read-out: Affinity Ki DOR.

Data set [4] addresses T1, KOR. The data set is described as follows: KOR-mediated β-arrestin2 recruitment, DiscoveRx PathHunter assay, U2OS-hMOR-β-arrestin2 cells. The class given is cell-based. The following applies: for Emax: read-out: β-arrestin2 recruitment assay Emax. In general terms: Recruitment of arrestin is a read-out of receptor activation apart from second messengers.
Data set [5] has as its target T1, KOR. The data set is described as follows: biochemical. Format: binding. Details: expressed in transfected cells; host or cells: CHO cells (membranes).
Data set [6] addresses T3, human MOR (Homo sapiens, UniProt P35372).
T3 construct: expressed in transfected cells; host or cells: CHO cells (membranes)
The data set is described as follows: Opioid receptor binding assay, competition binding, CHO cell membranes (MOR). The following applies: membranes from CHO cells stably expressing human MOR; read-out: Affinity Ki MOR.

The mark [7] stands for this setting: read-out: [35S]GTPγS binding KOR EC50.

As a reminder, the melting point is the temperature of the solid-liquid transition. The term EC50 denotes the midpoint of the concentration-response curve. By Emax is commonly meant the greatest response seen or fitted, relative to the assay's reference. One may read the Ki as a dissociation constant, usually derived from enzyme kinetics or from competition with a known ligand.

Counter-ions that a name gives are not always drawn. Like-named read-outs stand apart in the source and are kept apart here.

T2 sequence (P41143 whole entry): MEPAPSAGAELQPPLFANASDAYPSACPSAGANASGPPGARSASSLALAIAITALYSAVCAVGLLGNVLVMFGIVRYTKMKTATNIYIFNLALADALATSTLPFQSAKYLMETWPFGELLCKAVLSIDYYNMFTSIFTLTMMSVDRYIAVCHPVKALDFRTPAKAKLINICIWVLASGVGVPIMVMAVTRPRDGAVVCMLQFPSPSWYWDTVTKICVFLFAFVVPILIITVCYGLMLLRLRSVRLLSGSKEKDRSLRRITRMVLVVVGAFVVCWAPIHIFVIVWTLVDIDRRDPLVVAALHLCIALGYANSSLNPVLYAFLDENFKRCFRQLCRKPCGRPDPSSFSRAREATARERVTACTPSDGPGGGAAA
T3 sequence (P35372 whole entry): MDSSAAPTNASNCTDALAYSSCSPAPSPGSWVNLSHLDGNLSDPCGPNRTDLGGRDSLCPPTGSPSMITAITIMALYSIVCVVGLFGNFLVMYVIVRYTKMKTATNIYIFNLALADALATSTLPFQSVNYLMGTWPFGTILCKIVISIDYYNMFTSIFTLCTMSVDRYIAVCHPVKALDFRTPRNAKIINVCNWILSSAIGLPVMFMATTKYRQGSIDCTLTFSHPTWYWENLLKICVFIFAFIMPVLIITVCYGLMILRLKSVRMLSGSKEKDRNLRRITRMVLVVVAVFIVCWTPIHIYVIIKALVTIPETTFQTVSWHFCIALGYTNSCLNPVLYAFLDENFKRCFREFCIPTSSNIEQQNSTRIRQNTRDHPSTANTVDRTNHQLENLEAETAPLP
T1 sequence (P41145 whole entry): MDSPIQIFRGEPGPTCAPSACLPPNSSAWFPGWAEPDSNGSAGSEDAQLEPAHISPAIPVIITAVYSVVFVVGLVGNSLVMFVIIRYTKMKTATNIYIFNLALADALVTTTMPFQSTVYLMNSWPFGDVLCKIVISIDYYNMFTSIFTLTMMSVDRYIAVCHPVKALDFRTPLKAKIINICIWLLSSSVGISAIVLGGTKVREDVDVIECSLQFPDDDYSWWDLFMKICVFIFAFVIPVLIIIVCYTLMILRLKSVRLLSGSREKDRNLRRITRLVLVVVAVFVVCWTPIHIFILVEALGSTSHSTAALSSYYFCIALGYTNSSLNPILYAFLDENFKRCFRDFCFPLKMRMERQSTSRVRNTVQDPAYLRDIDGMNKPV

`Oc1cccc(CCN(CCc2cccc(O)c2)CC2CC2)c1`: the melting point fell in the range of 106 to 107 °C.
As to `C=CCN(CCc1cccc(O)c1)CCc1cccc(O)c1`, the melting point lay within 104 to 106 °C.
Compound `CC(C)CCN(CCc1cccc(O)c1)CCc1cccc(O)c1` came in with a melting point of 71 to 72 °C.
On the same count and under the same terms, the same measure for `CCCCN(CCc1cccc(O)c1)CCc1cccc(O)c1`: 62 to 64 °C; for `CCCCCN(CCc1cccc(O)c1)CCc1cccc(O)c1`: 70 to 72 °C; for `CCCCCCN(CCc1cccc(O)c1)CCc1cccc(O)c1`: 75 to 76 °C.
`Oc1ccc(CCN(CCc2cccc(O)c2)CC2CCCCC2)cc1` returned a melting point of 155 to 157 °C.
`C=CCN(CCc1ccc(O)cc1)CCc1cccc(O)c1` registered a melting point of 103 to 105 °C.
Same read-out and setting: the same measure for `CCCCN(CCc1ccc(O)cc1)CCc1cccc(O)c1`: 65 to 68 °C; for `Oc1ccc(CCN(CCc2cccc(O)c2)CC2CC2)cc1`: 104 to 105 °C; for `Oc1cccc(CCN(CCc2ccccc2)Cc2ccccc2)c1F`: 126 to 128 °C.
The compound `Oc1ccc(CCN(CCc2ccccc2)CC2CCCC2)cc1` showed a melting point of 150 to 153 °C.
The same measure, in the same setting: the same measure for `CC(C)CCN(CCc1ccccc1)CCc1cccc(O)c1`: 149 to 150 °C; for `Oc1cccc(CCN(CCc2ccccc2)C2CCC2)c1`: 100 to 101 °C.
On the same count and under the same terms, the same measure for `Nc1cccc(CCN(CCc2ccccc2)CC2CCC2)c1` (as salt: hydrochloride): 68 to 70 °C.
Turning to `Oc1cccc(CCN(CCc2ccccc2)CC2CCCC2)c1` [Compound 2, 3-[2-[(Cyclopentylmethyl)(phenethyl)amino]ethyl]phenol], the melting point lay within 154 to 156 °C. Besides, in data set [1], the ED50 writhing test is 0.54 mg/kg, s.c; the “Relative analgesic potency to HS665” value was found to be 3.5; the “Relative analgesic potency to HS666” value is 6.0; the “Relative analgesic potency to U50,488” value worked out at 2.9. Besides, in data set [2], a half-maximal effect (EC50) was put at 4.19 nM and the Emax is 72.9%. Moreover, the Ki in data set [3] stood at 5210 nM. Also, in data set [4], it took 1340 nM to reach a half-maximal effect (EC50) and the Emax came to 83%.
The compound `Oc1cccc(CCN(CCc2ccccc2)CC2CCCCC2)c1` [Compound 3, 3-[2-[(Cyclohexylmethyl)(phenethyl)amino]ethyl]phenol] showed a melting point of 150 to 151 °C. The compound also returned an inhibitory constant (Ki) in data set [5] of 0.088 nM. For the same compound, in data set [1], the ED50 writhing test is reported as 0.97 mg/kg, s.c; the “Relative analgesic potency to HS665” value was 2.0; the “Relative analgesic potency to HS666” value was 3.3; the “Relative analgesic potency to U50,488” value stood at 1.6. Further, the EC50 in data set [2] (setting [7]) turned out to be 0.23 nM. In addition, the Emax in data set [2] turned out to be 61.9%. Further, the Ki in data set [3] amounted to 2140 nM. In addition, the Ki in data set [6] amounted to 436 nM. In addition, in data set [4], the Bias factor is reported as 2909, the EC50 was 1360 nM and the maximal effect (Emax) was 72.2%.
Turning to `Oc1cccc(CCN(CCc2ccccc2)Cc2ccccc2)c1` [Compound 4, 3-[2-[Benzyl(phenethyl)amino]ethyl]phenol], the melting point was 177 to 178 °C. Also, the inhibition constant (Ki) in data set [5] (read-out: Affinity Ki KOR) came to 0.71 nM. In data set [1], the “Relative analgesic potency to HS665” value stood at 1.6, the “Relative analgesic potency to HS666” value is recorded as 2.7 and the “Relative analgesic potency to U50,488” value amounted to 1.3. Also, in data set [2] (setting [7]), the EC50 was 4.65 nM. Moreover, the maximum response (Emax) in data set [2] stood at 79.5%. For the same compound, in data set [3], the Ki worked out at 1860 nM. Also, in data set [6], the Ki came to 463 nM. Further, in data set [4], the Bias factor was found to be 1172 and the Emax was 37.3%. Besides, the concentration giving a half-maximal response (EC50) in data set [4] (DiscoveRx PathHunter assay, U2OS-hMOR cells, read-out: β-arrestin2 recruitment assay EC50) worked out at 4450 nM.
As to `Oc1cccc(CCN(CCc2cccc(O)c2)CC2CCC2)c1` [Compound 12, 3,3′-[2,2′-(Cyclobutylmethylazanediyl)bis(ethane-2,1-diyl)]diphenol], the affinity in data set [5] corresponds to a Ki of 0.34 nM. For the same compound, in data set [1], the ED50 writhing test is given as 1.59 mg/kg, s.c; the “Relative analgesic potency to HS665” value was found to be 1.2; the “Relative analgesic potency to HS666” value is 2.0; the “Relative analgesic potency to U50,488” value came out at 1.0. Moreover, in data set [2], the EC50 came to 5.51 nM and the Emax was determined as 71.4%. Also, in data set [3], the Ki was 4180 nM. Besides, the Ki in data set [6] stood at 230 nM.
Compound `COc1cccc(CCN(CCc2ccc(O)cc2)CC2CCCC2)c1` [Compound 27, 4-[2-[(Cyclopentylmethyl)(3-methoxyphenethyl)amino]ethyl]phenol] gave a melting point of 74 to 77 °C. Further, the Ki in data set [5] stood at 0.17 nM. In data set [2], the EC50 was found to be 22.8 nM and the Emax is 73.6%. In addition, the Ki in data set [3] was determined as 6240 nM. The Ki in data set [6] turned out to be 158 nM.
Compound `Oc1cccc(CCN(CCc2cccc(O)c2)CC2CCCCC2)c1` [Compound 29, 3,3′-[2,2′-(Cyclohexylmethylazanediyl)bis(ethane-2,1-diyl)]diphenol] registered a melting point of 157 to 158 °C. The compound further gave a Ki in data set [5] of 0.18 nM. Besides, in data set [2], the response was half-maximal at 10.6 nM (EC50) and the Emax amounted to 92.2%. The inhibition constant Ki in data set [6] stood at 219 nM.
The like results for `Oc1cccc(CCN(CCc2cccc(O)c2)CC2CCCC2)c1` [Compound 39, 3,3′-[2,2′-(Cyclopentylmethylazanediyl)bis(ethane-2,1-diyl)]diphenol] were, in that order, 113 °C, 0.38 nM, 14.2 nM, 83.6% and 702 nM.
With `Oc1cccc(CCN(CCc2ccccc2)CC2CCC2)c1F` [Compound 49, 3-[2-[(Cyclobutylmethyl)(phenethyl)amino]ethyl]-2-fluorophenol], the Ki was found to be 0.022 nM in data set [5] and 414 nM in data set [6]. Further, the results for the EC50 in data set [2] (setting [7]) and in data set [4] were 6.9 nM and 859 nM, respectively. Further, the Emax in data set [2] is 66.1%; in data set [4], 57.5%. This compound yielded a Bias factor in data set [4] of 82.
On to `Oc1cccc(CCN(CCc2ccccc2)CC2CCCCC2)c1F` [Compound 51, 3-[2-[(Cyclohexylmethyl)(phenethyl)amino]ethyl]-2-fluorophenol], for which the melting point lay in the range of 129 to 130 °C. The Ki in data set [5] came to 0.046 nM. Also, in data set [1], the ED50 writhing test is recorded as 1.20 mg/kg, s.c; the “Relative analgesic potency to HS665” value is reported as 1.6; the “Relative analgesic potency to HS666” value amounted to 2.7; the “Relative analgesic potency to U50,488” value turned out to be 1.3. Moreover, in data set [2] (setting [7]), the EC50 came out at 2.77 nM. Further, the Emax in data set [2] came to 84.6%. Also, the Ki in data set [6] came to 543 nM. In data set [4], the Bias factor turned out to be 1514; the midpoint of the response, the EC50, lay at 4180 nM; the Emax amounted to 48.4%.
Turning to `Oc1cccc(CCN(CCc2cccc(O)c2F)CC2CCC2)c1` [Compound 53, 3-[2-[(Cyclobutylmethyl)(3-hydroxyphenethyl)amino]ethyl]-2-fluorophenol], the Ki in data set [5] (read-out: Affinity Ki KOR) came out at 0.12 nM; in data set [3], 4750 nM; in data set [6], 548 nM. The EC50 in data set [2] (setting [7]) was 1.49 nM; in data set [4], 529 nM. The Emax was 53.1% in data set [2] and 41.2% in data set [4]. The Bias factor in data set [4] was 263.
Take `Oc1cccc(CCN(CCc2ccccc2)CC2CCC2)c1` [HS665, reference compound]: in data set [1], the ED50 writhing test is 1.91 mg/kg, s.c. The inhibition constant (Ki) in data set [3] is over 10000 nM.
`Cl.Oc1cccc(CCN(CCc2ccccc2)CC2CC2)c1` [HS666, 3-[2-[(Cyclopropylmethyl)(phenethyl)amino]ethyl]phenol Hydrochloride, reference compound]: the Ki in data set [5] (read-out: Affinity Ki KOR) turned out to be 5.9 nM. Moreover, in data set [1], the ED50 writhing test was 3.23 mg/kg, s.c; the “Relative analgesic potency to HS665” value is recorded as 0.6; the “Relative analgesic potency to HS666” value turned out to be 1.0; the “Relative analgesic potency to U50,488” value came to 0.5. Moreover, in data set [2] (setting [7]), the EC50 came to 35 nM. The Emax in data set [2] turned out to be 53.4%. Further, the Ki in data set [3] is over 10000 nM. In data set [6], the Ki is 826 nM. Moreover, in data set [4], the Bias factor is on record as 18, a half-maximal response (EC50) required 502 nM and the Emax turned out to be 25%.
